Laboratory results: patent publication US7728012B2, “Carboxamide compounds and their use as calpain inhibitors” (Abbott GmbH & Co. KG, priority 2006, dated 2010)

Columns and labels:
Type in all cases: biochemical
[1] = biological target: T1, calpain-I isolated from human erythrocytes (Homo sapiens, UniProt P07384); test: Calpain I kinetic fluorescence enzyme inhibition assay; conditions: apparent Ki from IC50 by Cheng-Prussoff; average of 2 to 4 dose-effect plots
T1 construct: calpain-I—isolated from human erythrocytes; purchased Calbiochem 208713; host or cells: human erythrocytes (tissue isolate)
T1 sequence (P07384 1-714): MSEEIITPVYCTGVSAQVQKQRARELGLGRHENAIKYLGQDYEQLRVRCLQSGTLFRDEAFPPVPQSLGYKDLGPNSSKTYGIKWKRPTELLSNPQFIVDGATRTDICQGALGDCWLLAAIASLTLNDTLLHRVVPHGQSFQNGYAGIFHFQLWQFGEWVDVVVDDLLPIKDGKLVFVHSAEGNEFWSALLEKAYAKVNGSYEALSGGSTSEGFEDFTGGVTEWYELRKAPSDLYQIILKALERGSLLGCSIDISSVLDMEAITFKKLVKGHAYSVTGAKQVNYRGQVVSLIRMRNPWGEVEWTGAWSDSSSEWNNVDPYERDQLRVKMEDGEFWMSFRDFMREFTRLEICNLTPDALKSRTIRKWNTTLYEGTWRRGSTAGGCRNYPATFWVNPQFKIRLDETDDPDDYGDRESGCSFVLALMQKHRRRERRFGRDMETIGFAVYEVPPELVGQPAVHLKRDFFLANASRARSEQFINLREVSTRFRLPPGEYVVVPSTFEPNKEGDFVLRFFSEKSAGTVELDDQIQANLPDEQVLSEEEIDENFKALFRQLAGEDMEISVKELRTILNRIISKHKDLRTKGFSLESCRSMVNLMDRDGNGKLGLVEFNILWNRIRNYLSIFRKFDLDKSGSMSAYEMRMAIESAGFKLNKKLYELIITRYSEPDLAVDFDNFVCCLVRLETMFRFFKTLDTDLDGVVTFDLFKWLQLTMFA
T1 sequence (P04632 1-268 partner): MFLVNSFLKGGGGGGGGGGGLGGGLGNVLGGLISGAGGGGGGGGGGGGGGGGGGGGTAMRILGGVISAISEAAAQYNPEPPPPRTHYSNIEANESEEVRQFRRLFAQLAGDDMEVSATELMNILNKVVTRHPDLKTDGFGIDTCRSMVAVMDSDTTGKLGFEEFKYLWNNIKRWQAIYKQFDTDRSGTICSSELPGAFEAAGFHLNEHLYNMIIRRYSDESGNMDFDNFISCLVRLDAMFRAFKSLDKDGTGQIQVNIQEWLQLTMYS

[2] = biological target: T2, cathepsin B isolated from human liver (Homo sapiens, UniProt P07858); test: Cathepsin B kinetic fluorescence enzyme inhibition assay; conditions: selectivity ratio versus calpain I
T2 construct: cathepsin B—isolated from human liver; purchased Calbiochem 219362; host or cells: human liver (tissue isolate)
Method: (§1) The following solutions and buffers were employed: • HBS (for 40 ml): 800 μl M HEPES; 2.16 ml 100 mM KCl; 4.8 ml 1M NaCl; 3.59 ml 5% glucose; 60 μl μM MgSO4; 400 μl 100 mM Na pyruvate, 28.19 ml water; pH 7.2-7.5. • lysis buffer (for 20 ml): 400 μl M Tris pH 8.2; 2.74 ml 1M NaCl; 520 μl 0.5M EDTA; 2 ml 10% triton X-100; 0.8 ml (=1:25) CompletePlus (1 tablet/2 ml H2O); 200 μl 100 mM Pefabloc; 13.34 ml water, pH 8.2. • TBST (10×) (for 1 l): 100 mM Tris (12.1 g); 1.5M NaCl (87 g); 1% Tween 20 (10 g), adjusted to pH 8. I Enzyme Inhibition In Vitro: • Testing for blockade of the corresponding enzymic activities was carried out by means of kinetic fluorescence assays (excitation 390 nm, emission 460 nm). • Apparent Ki values were calculated from the experimentally determined IC50 values by the Cheng-Prussoff relation assuming a reversible competitive enzyme inhibition. The Km values of the substrates used under the assay conditions indicated above were: 90 μM (Z-Phe-Arg-AMC, cathepsin B), 10 μM (Z-Gly-Pro-Arg-AMC, cathepsin K), 2 μM (Z-Phe-Arg-AMC, cathepsin L), and 30 μM (Z-Val-Val-Arg-AMC, cathepsin S). • The indicated Ki values are averages of the inhibition constants calculated on the basis of 2 to 4 independent dose-effect plots.
(§2) The following assays were used: • 1. Calpain I: • 20 nM calpain-I—isolated from human erythrocytes (Calbiochem #208713), 100 μM Suc-Leu-Tyr-AMC (Bachem #1-1355) as substrate in buffer with 62 mM imidazole, 0.3 mM CaCl2, 0.10% CHAPS, 0.05% BSA, 1 mM DTT at pH 7.3 and room temperature. • 2. Cathepsin B: • 0.25 nM cathepsin B—isolated from human liver (Calbiochem #219362), 100 μM Z-Phe-Arg-AMC (Bachem #I-1160) as substrate 50 mM MES, 2 mM EDTA, 0.05% Brij 35, 2.5 mM L-cysteine, pH 6.0, room temperature. • 3. Cathepsin K: • 3 nM cathepsin K—activated from recombinant human procathepsin K from E. coli (Calbiochem #342001), 10 μM Z-Gly-Pro-Arg-AMC (Biomol #P-142) as substrate in 50 mM MES, 2 mM EDTA, 0.05% Brij 35, 2.5 mM L-cysteine, pH 6.0, room temperature. • 4. Cathepsin L: • 1 nM cathepsin L—isolated from human liver (Calbiochem #219402), 2 μM Z-Phe-Arg-AMC (Bachem #1-1160) as substrate in 50 mM MES, 2 mM EDTA, 0.05% Brij 35, 2.5 mM L-cysteine, pH 6.0, room temperature. • 5. Cathepsin S: • 0.5 nM recombinant human cathepsin S from E. coli (Calbiochem #219343), 20 μM Z-Val-Val-Arg-AMC (Bachem #1-1540) as substrate in 50 mM MES, 2 mM EDTA, 0.05% Brij 35, 2.5 mM L-cysteine, pH 6.0, room temperature. • The results of the in vitro determination are indicated in Table 1. The following abbreviations are used in Table 1: • The “Calpain activity” column, ++ stands for a calpain Ki (Ki(calpain)) of ≦40 nM and + means: 40 nM<Ki(Calpain)≦100 nM. • The “Sel. cat. B” column indicates the Ki(cathepsin B)/Ki(calpain) ratio. In this connection, ++ means a Ki(cathepsin B)/Ki(calpain) ratio of ≧30 and + means 10≦Ki(cathepsin B)/Ki(calpain)<30. • The “Sel. cat. K” column indicates the Ki(cathepsin K)/Ki(calpain) ratio. In this connection, ++ means a Ki(cathepsin K)/Ki(calpain) ratio of ≧30 and + means 10≦Ki(cathepsin K)/Ki(calpain)<30. • The “Sel. cat. L” column indicates the Ki(cathepsin L)/Ki(calpain) ratio. In this connection, ++ means a Ki(cathepsin L)/Ki(calpain) ratio of ≧50 and + means 30≦Ki(cathepsin L)/Ki(calpain)<50. • The “Sel. cat. S” column indicates the Ki(cathepsin S)/Ki(calpain) ratio. In this connection, ++ means a Ki(cathepsin S)/Ki(calpain) ratio of ≧100 and + means 50≦Ki(cathepsin S)/Ki(calpain)<100.

[3] = biological target: T3, cathepsin K activated from recombinant human procathepsin K (Homo sapiens, UniProt P43235); test: Cathepsin K kinetic fluorescence enzyme inhibition assay; conditions: selectivity ratio versus calpain I
T3 construct: purchased Calbiochem 342001; host or cells: E. coli
T3 sequence (P43235 115-329): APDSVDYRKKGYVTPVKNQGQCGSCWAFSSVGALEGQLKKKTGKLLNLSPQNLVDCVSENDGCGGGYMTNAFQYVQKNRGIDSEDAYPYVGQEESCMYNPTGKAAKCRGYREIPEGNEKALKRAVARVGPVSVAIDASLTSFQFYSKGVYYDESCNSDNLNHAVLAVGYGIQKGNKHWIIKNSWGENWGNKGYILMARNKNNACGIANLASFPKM
Method: as §1, §2

[4] = biological target: T4, cathepsin L isolated from human liver (Homo sapiens, UniProt P07711); test: Cathepsin L kinetic fluorescence enzyme inhibition assay; conditions: selectivity ratio versus calpain I
T4 construct: cathepsin L—isolated from human liver; purchased Calbiochem 219402; host or cells: human liver (tissue isolate)
Method in brief: (§3)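 Kinetic fluorescence (ex 390/em 460 nm) at room temperature in 50 mM MES, 2 mM EDTA, 0.05% Brij 35, 2.5 mM L-cysteine, pH 6.0. Cathepsin B (liver, 0.25 nM) with 100 μM Z-Phe-Arg-AMC; cathepsin L (liver, 1 nM) with 2 μM Z-Phe-Arg-AMC; recombinant E. coli cathepsin S (0.5 nM) with 20 μM Z-Val-Val-Arg-AMC. Ki via Cheng-Prusoff.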

[5] = biological target: T5, recombinant human cathepsin S (Homo sapiens, UniProt P25774); test: Cathepsin S kinetic fluorescence enzyme inhibition assay; conditions: selectivity ratio versus calpain I
T5 construct: purchased Calbiochem 219343; host or cells: E. coli
Method in brief: as §3

T4 sequence (P07711 114-333): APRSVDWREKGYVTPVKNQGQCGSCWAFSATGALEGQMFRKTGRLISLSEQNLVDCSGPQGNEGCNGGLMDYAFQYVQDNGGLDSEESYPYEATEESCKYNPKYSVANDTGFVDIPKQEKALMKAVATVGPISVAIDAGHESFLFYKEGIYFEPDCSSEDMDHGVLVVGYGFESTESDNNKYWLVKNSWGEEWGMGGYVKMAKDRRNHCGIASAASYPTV
T5 sequence (P25774 115-331): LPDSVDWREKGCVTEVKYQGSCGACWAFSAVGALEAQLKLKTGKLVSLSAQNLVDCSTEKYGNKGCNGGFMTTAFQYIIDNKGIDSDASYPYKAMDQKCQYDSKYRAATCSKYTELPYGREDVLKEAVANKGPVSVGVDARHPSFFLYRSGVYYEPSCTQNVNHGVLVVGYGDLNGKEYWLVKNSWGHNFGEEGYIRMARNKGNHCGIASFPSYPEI

Compound: NC(=O)C(=O)C(Cc1ccccc1)NC(=O)c1cc(Cl)cnc1-n1ccc(-c2ccccc2)n1 (centres unmarked) [Example 27, N-(3-Amino-1-benzyl-2,3-dioxopropyl)-5-chloro-2-(3-phenyl-1H-pyrazol-1-yl)nicotinamide]
- Ki [1]: ≤ 40 nM
- Sel cat. B (Ki(cathepsin B)/Ki(calpain) ratio) [2]: ++ (Ki(cathepsin B)/Ki(calpain) ratio of ≧30)
- Sel cat. K (Ki(cathepsin K)/Ki(calpain) ratio) [3]: + (10≦Ki(cathepsin K)/Ki(calpain)<30)
- Sel cat. L (Ki(cathepsin L)/Ki(calpain) ratio) [4]: + (30≦Ki(cathepsin L)/Ki(calpain)<50)

Compound: NC(=O)C(=O)C(Cc1ccccc1)NC(=O)c1cc(Cl)cnc1-n1ccc(-c2ccc(N3CCOCC3)cc2)n1 (centres unmarked) [Example 31, N-(3-Amino-1-benzyl-2,3-dioxopropyl)-5-chloro-2-[3-(4-morpholin-4-ylphenyl)-1H-pyrazol-1-yl]nicotinamide]
- Ki [1]: ≤ 40 nM
- Sel cat. B (Ki(cathepsin B)/Ki(calpain) ratio) [2]: ++ (Ki(cathepsin B)/Ki(calpain) ratio of ≧30)
- Sel cat. K (Ki(cathepsin K)/Ki(calpain) ratio) [3]: + (10≦Ki(cathepsin K)/Ki(calpain)<30)
- Sel cat. L (Ki(cathepsin L)/Ki(calpain) ratio) [4]: + (30≦Ki(cathepsin L)/Ki(calpain)<50)

Compound: NC(=O)C(=O)C(CC1CCCCC1)NC(=O)c1cccnc1-n1ccc(-c2ccccc2)n1 (centres unmarked) [Example 66, N-[3-Amino-1-(cyclohexylmethyl)-2,3-dioxopropyl]-2-(3-phenyl-1H-pyrazol-1-yl)nicotinamide]
- Ki [1]: ≤ 40 nM
- Sel cat. K (Ki(cathepsin K)/Ki(calpain) ratio) [3]: + (10≦Ki(cathepsin K)/Ki(calpain)<30)
- Sel cat. L (Ki(cathepsin L)/Ki(calpain) ratio) [4]: + (30≦Ki(cathepsin L)/Ki(calpain)<50)
- Sel cat. S (Ki(cathepsin S)/Ki(calpain) ratio) [5]: ++ (Ki(cathepsin S)/Ki(calpain) ratio of ≧100)

Compound: NC(=O)C(=O)C(Cc1ccccc1)NC(=O)c1cccnc1-n1ccc(-c2cccc(N3CCCC3)c2)n1 (centres unmarked) [Example 74, N-(3-Amino-1-benzyl-2,3-dioxopropyl)-2-[3-(3-pyrrolidin-1-ylphenyl)-1H-pyrazol-1-yl]nicotinamide]
- Ki [1]: ≤ 40 nM
- Sel cat. B (Ki(cathepsin B)/Ki(calpain) ratio) [2]: ++ (Ki(cathepsin B)/Ki(calpain) ratio of ≧30)
- Sel cat. K (Ki(cathepsin K)/Ki(calpain) ratio) [3]: ++ (Ki(cathepsin K)/Ki(calpain) ratio of ≧30)
- Sel cat. S (Ki(cathepsin S)/Ki(calpain) ratio) [5]: ++ (Ki(cathepsin S)/Ki(calpain) ratio of ≧100)

Compound: NC(=O)C(=O)C(Cc1ccccc1)NC(=O)c1cccnc1-n1ccc(-c2ccc3c(c2)CCO3)n1 (centres unmarked) [Example 75, N-(3-Amino-1-benzyl-2,3-dioxopropyl)-2-[3-(2,3-dihydrobenzo[b]furan-5-yl)-1H-pyrazol-1-yl]nicotinamide]
- Ki [1]: 40 to 100 nM
- Sel cat. K (Ki(cathepsin K)/Ki(calpain) ratio) [3]: + (10≦Ki(cathepsin K)/Ki(calpain)<30)
- Sel cat. L (Ki(cathepsin L)/Ki(calpain) ratio) [4]: ++ (Ki(cathepsin L)/Ki(calpain) ratio of ≧50)
- Sel cat. S (Ki(cathepsin S)/Ki(calpain) ratio) [5]: ++ (Ki(cathepsin S)/Ki(calpain) ratio of ≧100)

Compound: N#Cc1cnc(-n2ccc(-c3ccccc3)n2)c(C(=O)NC(Cc2ccccc2)C(=O)C(N)=O)c1 (centres unmarked) [Example 82, N-(3-Amino-1-benzyl-2,3-dioxopropyl)-5-cyano-2-(3-phenyl-1H-pyrazol-1-yl)nicotinamide]
- Ki [1]: 40 to 100 nM
- Sel cat. B (Ki(cathepsin B)/Ki(calpain) ratio) [2]: ++ (Ki(cathepsin B)/Ki(calpain) ratio of ≧30)
- Sel cat. K (Ki(cathepsin K)/Ki(calpain) ratio) [3]: ++ (Ki(cathepsin K)/Ki(calpain) ratio of ≧30)
- Sel cat. L (Ki(cathepsin L)/Ki(calpain) ratio) [4]: ++ (Ki(cathepsin L)/Ki(calpain) ratio of ≧50)

Compound: COc1ccc(OC)c(-c2ccn(-c3ncccc3C(=O)NC(Cc3ccccc3)C(=O)C(N)=O)n2)c1 (centres unmarked) [Example 151, N-[3-Amino-2,3-dioxo-1-(phenylmethyl)propyl]-2-{3-[2,5-bis(methyloxy)phenyl]-1H-pyrazol-1-yl}pyridine-3-carboxamide]
- Ki [1]: 40 to 100 nM
- Sel cat. B (Ki(cathepsin B)/Ki(calpain) ratio) [2]: ++ (Ki(cathepsin B)/Ki(calpain) ratio of ≧30)
- Sel cat. K (Ki(cathepsin K)/Ki(calpain) ratio) [3]: ++ (Ki(cathepsin K)/Ki(calpain) ratio of ≧30)
- Sel cat. L (Ki(cathepsin L)/Ki(calpain) ratio) [4]: ++ (Ki(cathepsin L)/Ki(calpain) ratio of ≧50)

Compound: NC(=O)C(=O)C(Cc1ccccc1)NC(=O)c1cccnc1-n1ccc(C2CCCCC2)n1 (centres unmarked) [Example 192, N-[3-Amino-2,3-dioxo-1-(phenylmethyl)propyl]-2-(3-cyclohexyl-1H-pyrazol-1-yl)pyridine-3-carboxamide]
- Ki [1]: 40 to 100 nM
- Sel cat. K (Ki(cathepsin K)/Ki(calpain) ratio) [3]: + (10≦Ki(cathepsin K)/Ki(calpain)<30)
- Sel cat. L (Ki(cathepsin L)/Ki(calpain) ratio) [4]: ++ (Ki(cathepsin L)/Ki(calpain) ratio of ≧50)
- Sel cat. S (Ki(cathepsin S)/Ki(calpain) ratio) [5]: ++ (Ki(cathepsin S)/Ki(calpain) ratio of ≧100)
